Laboratory results published in PMC10976043, “Function and Mechanism of Antiviral Wasp Venom Peptide Protopolybia-MP III and Its Derivatives against HSV-1” (Toxins, 2024).
Like-named read-outs stand apart in the source and are kept apart here. Ends that are not written are not given here.

Experiments:
HSV-1 ICP0 = assay type: cell-based, herpes simplex virus type 1; conditions: for inhibition rate on intracellular HSV-1 ICP0 protein expression: ICP0, 1 h; for inhibition rate on intracellular HSV-1 ICP0 expression level: ICP0, 24 h
Protocol: (§1) (A) Amino acid sequence of Protopolybia-MP III. Basic residues are labeled blue, and acidic residues are labeled red. (B,C) Suppression of intracellular HSV-1 infection by Protopolybia-MP III. Cells were preincubated with Protopolybia-MP III at different concentrations or PBS for 1 h and then infected with HSV-1 at a multiplicity of infection (MOI) of 1. After 24 h, the cells were collected. Intracellular HSV-1 RNA was analyzed by qPCR (B), and intracellular HSV-1 ICP0 protein levels were analyzed by Western blotting (C). (D) Suppression of Protopolybia-MP III on extracellular HSV-1 particles. Cells were treated with Protopolybia-MP III at different concentrations or PBS for 24 h, and then the supernatant was collected and evaluated in a plaque formation assay. (E) Cytotoxicity of Protopolybia-MP III to Vero cells. Cells were treated with Protopolybia-MP III or PBS at different concentrations for 24 h, and then the cytotoxicity was determined by CCK8 assay. * p < 0.05. ** p < 0.01. *** p < 0.001.
(§2) Figure 2 Protopolybia-MP III inhibits HSV-1 replication in human cell lines. (A) Cytotoxicities of Protopolybia-MP III to A549 cells, HCEC, and SK-N-MC. Cells were treated with Protopolybia-MP III at different concentrations or PBS for 24 h, and then cytotoxicities were determined by the CCK8 assay. (B,C) Suppression of intracellular HSV-1 infection by Protopolybia-MP III in A549 cells, HCEC, and SK-N-MC. Cells were preincubated with Protopolybia-MP III at different concentrations or PBS for 1 h and then infected with HSV-1 at an MOI of 1. After 24 h, the cells were collected. Intracellular HSV-1 RNA was analyzed by qPCR (B), and intracellular HSV-1 ICP0 protein expression levels were analyzed by Western blotting (C). (D) Inhibition of Protopolybia-MP III on extracellular HSV-1 particles in A549 cells, HCEC, and SK-N-MC. Cells were treated with Protopolybia-MP III at different concentrations or PBS for 24 h, and then the supernatant was collected and evaluated in a plaque formation assay. * p < 0.05. ** p < 0.01. *** p < 0.001.
(§3) Figure 7 Antiviral activity analysis of Protopolybia-MP III mutants. (A) Amino acid sequences of Protopolybia-MP III mutants. Identical amino acids among Protopolybia-MP I, Protopolybia-MP III, and its mutants are marked in blue, and different amino acids are marked in red. (B) Suppression of Protopolybia-MP I, Protopolybia-MP III, and its mutants on intracellular HSV-1 content. Cells were preincubated with 20 μg/mL peptides or PBS for 1 h and then infected with HSV-1 at an MOI of 1. After 24 h, the cells were collected. Intracellular HSV-1 ICP0 protein levels were analyzed by Western blotting. The ratios of HSV-1 ICP0 to GAPDH were calculated by ImageJ software. (C) Inhibition of HSV-1 free virion infectivity by Protopolybia-MP I, Protopolybia-MP III, and its mutants. HSV-1 (MOI = 1) and 5 μg/mL peptides or PBS were coincubated at 37 °C for 1 h, and the mixtures were then used to infect Vero cells. After 24 h, cells were collected, and intracellular HSV-1 RNA was analyzed by qPCR. ns, no significance. * p < 0.05. ** p < 0.01. *** p < 0.001.
(§4) HSV-1 was kindly provided by Professor Zhijian Cao of Wuhan University. Cells were infected with HSV-1 at an MOI of 1 for 24 h. Then, cells were collected for qPCR, Western blotting, and immunofluorescence assays, and the extracellular supernatant was used for plaque formation assays.
Cells were collected and lysed in 1% SDS. The cell lysate was heated at 100 °C for 20 min and centrifuged at 12,000 rpm at 4 °C for 15 min, and then the supernatant was collected and assayed with a BCA Protein Quantification Kit (Vazyme). Equal amounts of protein were separated using a PAGE Gel Fast Preparation Kit (10%) (Epizyme Biotech, Wuhan, China) and transferred to nitrocellulose (NC) membranes (Millipore, Wuhan, China). […]

HSV-1 virion = assay: HSV-1 free virion infectivity assay, qPCR; assay type: cell-based, herpes simplex virus type 1; conditions: mutant comparison (Figure 7C): 5 μg/mL coincubated with HSV-1 (MOI 1) at 37 °C for 1 h, then Vero cells infected, 24 h
Protocol: Figure 5 Protopolybia-MP III destroys the integrity of HSV-1 free virions. (A) Schematic diagram for studying the effect of Protopolybia-MP III on HSV-1 free virion infectivity. (B) Effects of Protopolybia-MP III on HSV-1 free virion infectivity at different temperatures. HSV-1 (MOI = 1) and 20 μg/mL Protopolybia-MP III or PBS were coincubated at 4 °C, 22 °C, and 37 °C for 1 h, and then Vero cells were infected as described in (A). After 24 h, cells were collected, and intracellular HSV-1 RNA was analyzed by qPCR. (C) Effects of different concentrations of Protopolybia-MP III on HSV-1 free virion infectivity. HSV-1 (MOI = 1) and 1 or 10 μg/mL Protopolybia-MP III or PBS were coincubated at 37 °C for 1 h, and then Vero cells were infected as described in (A). After 24 h, cells were collected, and intracellular HSV-1 RNA was analyzed by qPCR. (D,E) The effect of Protopolybia-MP III on HSV-1 free virion integrity. HSV-1 and 20 μg/mL Protopolybia-MP III or PBS were coincubated at 37 °C for 1 h. Then, after centrifuging for 2 h at 40,000 rpm at 4 °C, the contents of HSV-1 gB in the supernatant and precipitate were detected by Western blotting (D). In addition, the structure of HSV-1 virions after incubation with Protopolybia-MP III was observed by electron microscopy. The red arrow points to a destroyed HSV-1 virion. *** p < 0.001.
as §3
(§5) Cells were collected and lysed using TRIzol reagent (Beyotime Biotechnology, Shanghai, China) to release the intracellular total RNA, followed by precipitation with isopropanol. The first-strand cDNA was reverse-transcribed by the HiScript III 1st Strand cDNA Synthesis Kit (+gDNA wiper) (Vazyme, Nanjing, China). The cDNA was quantitated by qPCR with primers using Taq Pro Universal SYBR qPCR Master Mix (Vazyme). The HSV-1 primers were 5′-[…]-3′ (sense) and 5′-[…]-3′ (antisense). The monkey GAPDH primers were 5′-[…]-3′ (sense) and 5′-[…]-3′ (antisense). The human GAPDH primers were 5′-[…]-3′ (sense) and 5′-[…]-3′ (antisense). qPCR experiments were performed on a Bio-Rad CFX96 Touch (Pleasanton, CA, USA) according to the manufacturer’s instructions.

HSV-1 [1] = assay type: cell-based, herpes simplex virus type 1; conditions: Vero cells, preincubated 1 h, HSV-1 MOI 1, 24 h, qPCR
Protocol: as §1, §2, §4, §5

HSV-1 [2] = assay: Plaque formation assay of extracellular HSV-1 particles; assay type: cell-based, herpes simplex virus type 1; conditions: Vero cells treated 24 h, supernatant in plaque formation assay
Protocol: as §1, §2
Vero cells seeded in a 24-well plate at 100% confluence were infected with virus diluent or supernatant. After 1 h of absorption at 37 °C, the supernatant was removed. Cells were washed three times with PBS and replenished with a plaque-covering layer (MEM with 2% FBS and 1.5% carboxymethylcellulose). After an incubation period of approximately 3 days, the cells were stained with 1% crystal violet containing 10% methanol for 0.5 h. Then, the plaques were counted, and the viral titer was calculated according to the plaque number and dilution.

Vero cells = assay: CCK8 cytotoxicity assay, Vero cells; assay type: cell-based, monkey; conditions: 40 μg/mL, 24 h
Protocol: as §1
Cells were seeded in a 96-well plate (7000–10,000 cells per well) and cultured at 37 °C overnight. Peptides in a series of concentrations were added to the medium, and cells were then incubated at 37 °C for 24 h. […] Finally, the absorbance was measured at 450 nm using a microplate reader (BioTek, Winooski, VT, USA).

Substance: INWLKLGKAVSAAL-NH2 [MP III-8]
- inhibition rate on intracellular HSV-1 ICP0 protein expression (HSV-1 ICP0; 20 μg/mL): 66%

Substance: INWLKLGKKVSDAL-NH2 [MP III-5]
- inhibition rate on intracellular HSV-1 ICP0 protein expression (HSV-1 ICP0; 20 μg/mL): 74.8%

Substance: INWLKLGKAVSAIL-NH2 [MP III-11]
- inhibition rate on intracellular HSV-1 ICP0 protein expression (HSV-1 ICP0; 20 μg/mL): 73.4%
- inhibition rate of HSV-1 free virion infectivity (HSV-1 virion): 64.7%

Substance: INWLKLGKKVIDIL-NH2 [MP III-7]
- inhibition rate on intracellular HSV-1 ICP0 protein expression (HSV-1 ICP0; 20 μg/mL): 100%
- inhibition rate of HSV-1 free virion infectivity (HSV-1 virion): 100%

Substance: INWLKLGKAVIDIL-NH2 [MP III-4]
- inhibition rate on intracellular HSV-1 ICP0 protein expression (HSV-1 ICP0; 20 μg/mL): 99.4%

Substance: INWLKLGKKVSDIL-NH2 [MP III-13]
- inhibition rate on intracellular HSV-1 ICP0 protein expression (HSV-1 ICP0; 20 μg/mL): 60.2%

Substance: INWLKLGKKVSAAL-NH2 [MP III-14]
- inhibition rate on intracellular HSV-1 ICP0 protein expression (HSV-1 ICP0; 20 μg/mL): 90.8%
- inhibition rate of HSV-1 free virion infectivity (HSV-1 virion): 25.3%

Substance: INWLKLGKAVIAIL-NH2 [MP III-10]
- inhibition rate on intracellular HSV-1 ICP0 protein expression (HSV-1 ICP0; 20 μg/mL): 100%
- inhibition rate of HSV-1 free virion infectivity (HSV-1 virion): 100%

Substance: INWLKLGKAVIAAL-NH2 [MP III-3]
- inhibition rate on intracellular HSV-1 ICP0 protein expression (HSV-1 ICP0; 20 μg/mL): 94%
- inhibition rate of HSV-1 free virion infectivity (HSV-1 virion): 58.3%

Substance: INWLKLGKAVSDIL-NH2 [MP III-9]
- inhibition rate on intracellular HSV-1 ICP0 protein expression (HSV-1 ICP0; 20 μg/mL): 63.8%
- inhibition rate of HSV-1 free virion infectivity (HSV-1 virion): 63.6%

Substance: INWLKLGKAVSDAL-NH2 [MP III-2]
- inhibition rate on intracellular HSV-1 ICP0 protein expression (HSV-1 ICP0; 20 μg/mL): 20.6%
- inhibition rate of HSV-1 free virion infectivity (HSV-1 virion): 27.4%

Substance: INWLKLGKKVIAIL-NH2 [MP III-12]
- inhibition rate on intracellular HSV-1 ICP0 protein expression (HSV-1 ICP0; 20 μg/mL): 76.8%
- inhibition rate of HSV-1 free virion infectivity (HSV-1 virion): 92.4%

Substance: INWLKLGKKVIAAL-NH2 [MP III-6]
- inhibition rate on intracellular HSV-1 ICP0 protein expression (HSV-1 ICP0; 20 μg/mL): 63.2%
- inhibition rate of HSV-1 free virion infectivity (HSV-1 virion): 95.5%

Substance: INWLKLGKKVSAIL-NH2 [Protopolybia-MP I]
- inhibition rate on intracellular HSV-1 RNA (HSV-1 [1]; 5 μg/mL peptide): no effect
- inhibition rate on intracellular HSV-1 RNA (HSV-1 [1]; 10 μg/mL peptide): no effect
- inhibition rate on intracellular HSV-1 RNA (HSV-1 [1]; 20 μg/mL peptide): no effect
- inhibition rate on intracellular HSV-1 ICP0 expression level (HSV-1 ICP0; 5 μg/mL): 17%
- inhibition rate on intracellular HSV-1 ICP0 expression level (HSV-1 ICP0; 10 μg/mL): 17%
- inhibition rate on intracellular HSV-1 ICP0 expression level (HSV-1 ICP0; 20 μg/mL): 25%
- extracellular HSV-1 particles (plaques) (HSV-1 [2]): almost no inhibitory effect
- cytotoxicity to Vero cells (Vero cells): almost nontoxic

Substance: INWLKLGKKVIDAL-NH2 [MP III-1]
- inhibition rate on intracellular HSV-1 ICP0 protein expression (HSV-1 ICP0; 20 μg/mL): 53.7%
- inhibition rate of HSV-1 free virion infectivity (HSV-1 virion): 59.7%
